Patent US4229204A, “Trifluoromethylphenyl isoxazolyl benzoates” (Monsanto Company, priority 1978, dated 1980)

Assays:
Assay type in all cases: in vivo
Williams soybeans = assay: Soybean seed yield test (Table V)
Method: Additionally, the compound of Example Number 3 was tested as follows.
Williams soybeans were planted on 5.5 inch row spacings. The soybeans were treated at three different stages of early growth (first, second or third trifoliate opening) with a formulation of the compound of Example Number 3 containing 0.25% Tween 20 as a surfactant.

grain sorghum = assay: Growth regulation of grain sorghum (Table IX); settings: 250 ppm
Excerpt: The compound of Example Number 3 was also applied to four-week old grain sorghum at a rate of 250 ppm.

Wild Buckwheat = assay: Post-emergent herbicidal test; further: ranges in brackets are in %
Method: (§1) The post-emergent tests were conducted as follows:
(§2) The active ingredients are applied in spray form to two or three week old specimens of various plant species. The spray, a solution or wettable powder suspension containing the appropriate rate of active ingredient to give the desired test rate and a surfactant, is applied to the plants.

Panicum Spp. = assay: Post-emergent herbicidal test; further: ranges in brackets are in %
Method: as §1, §2

Soybean = assay: Post-emergent herbicidal test; further: ranges in brackets are in %
Method: as §1, §2

Rice = assay: Post-emergent herbicidal test; further: ranges in brackets are in %
Method: as §1, §2

Hemp Sesbania = assay: Post-emergent herbicidal test; further: ranges in brackets are in %
Method: as §1, §2

Sugarbeet = assay: Post-emergent herbicidal test; further: ranges in brackets are in %
Method: as §1, §2

Wheat = assay: Post-emergent herbicidal test; further: ranges in brackets are in %
Method: as §1, §2

Crabgrass = assay: Post-emergent herbicidal test; further: ranges in brackets are in %
Method: as §1, §2

Sorghum = assay: Post-emergent herbicidal test; further: ranges in brackets are in %
Method: as §1, §2

cheyenne wheat = assay: Growth regulation of wheat (Table XI)
Excerpt: Table XI summarizes observations made when the compound of Example Number 3 was applied to cheyenne wheat.

[1] = tested on: mixture of Kentucky Bluegrass, Creeping Red Fescue and Chewings Fescue; assay: Growth regulation of lawn grasses (Table VIII)
Method: The compound of Example Number 3 was tested on various lawn grasses as follows. A mixture of Kentucky Bluegrass, Creeping Red Fescue and Chewings Fescue were planted in a good grade of top soil in plastic pots. Seven to ten days after germination, the plants were treated with the active ingredient to which a surfactant had been added by spraying the plants until they were wet with various concentrations.

Bluebell rice = assay: Growth regulation of rice; settings: four-week old rice, 250 ppm, both at 3 weeks and 7 weeks after treatment
Excerpt: The compound of Example Number 3 was applied to four-week old Bluebell rice at a rate of 250 ppm.

COC(=O)c1ccccc1-c1cc(-c2cccc(C(F)(F)F)c2)no1 [Example 3, Methyl 2-[3-[3-(Trifluoromethyl)-Phenyl]-5-Isoxazolyl]Benzoate]
Seed Yield (Williams soybeans; 0.0062 lb/acre, stage of application 2 (untreated 63.9)): 63.6 bu/acre
Seed Yield (Williams soybeans; 0.0125 lb/acre, stage of application 1 (untreated 63.9)): 67.4 bu/acre
Seed Yield (Williams soybeans; 0.0125 lb/acre, stage of application 2 (untreated 63.9)): 68.2 bu/acre
Seed Yield (Williams soybeans; 0.0125 lb/acre, stage of application 3 (untreated 63.9)): 65.7 bu/acre
Seed Yield (Williams soybeans; 0.0250 lb/acre, stage of application 1 (untreated 63.9)): 62.5 bu/acre
Seed Yield (Williams soybeans; 0.0250 lb/acre, stage of application 2 (untreated 63.9)): 64.7 bu/acre
Seed Yield (Williams soybeans; 0.0250 lb/acre, stage of application 3 (untreated 63.9)): 69.9 bu/acre
Seed Yield (Williams soybeans; 0.0375 lb/acre, stage of application 1 (untreated 63.9)): 59.6 bu/acre
Seed Yield (Williams soybeans; 0.0375 lb/acre, stage of application 2 (untreated 63.9)): 57.5 bu/acre
Seed Yield (Williams soybeans; 0.0375 lb/acre, stage of application 3 (untreated 63.9)): 70.3 bu/acre
Seed Yield (Williams soybeans; 0.0500 lb/acre, stage of application 2 (untreated 63.9)): 71.3 bu/acre
Plant Height (grain sorghum; 3 weeks after treatment): 91 % of Control
Other Observations (grain sorghum; 7 weeks after treatment): Necrosis.
Plant Height (grain sorghum; 7 weeks after treatment): 81 % of Control
herbicidal rating (Wild Buckwheat; 2 WAT, 1.12 kg/h): 1 (25-49)
herbicidal rating (Wild Buckwheat; 4 WAT, 5.60 kg/h): 1 (25-49)
herbicidal rating (Panicum Spp.; 2 WAT, 1.12 kg/h): 0 (0-24)
herbicidal rating (Panicum Spp.; 4 WAT, 5.60 kg/h): 0 (0-24)
herbicidal rating (Soybean; 2 WAT, 1.12 kg/h): 1 (25-49)
herbicidal rating (Soybean; 4 WAT, 5.60 kg/h): 1 (25-49)
herbicidal rating (Rice; 2 WAT, 1.12 kg/h): 0 (0-24)
herbicidal rating (Rice; 4 WAT, 5.60 kg/h): 0 (0-24)
herbicidal rating (Hemp Sesbania; 2 WAT, 1.12 kg/h): 1 (25-49)
herbicidal rating (Hemp Sesbania; 4 WAT, 5.60 kg/h): 0 (0-24)
herbicidal rating (Sugarbeet; 2 WAT, 1.12 kg/h): 0 (0-24)
herbicidal rating (Sugarbeet; 4 WAT, 5.60 kg/h): 1 (25-49)
herbicidal rating (Wheat; 2 WAT, 1.12 kg/h): 1 (25-49)
herbicidal rating (Wheat; 4 WAT, 5.60 kg/h): 0 (0-24)
herbicidal rating (Crabgrass; 2 WAT, 1.12 kg/h): 0 (0-24)
herbicidal rating (Crabgrass; 4 WAT, 5.60 kg/h): 0 (0-24)
herbicidal rating (Sorghum; 2 WAT, 1.12 kg/h): 0 (0-24)
herbicidal rating (Sorghum; 4 WAT, 5.60 kg/h): 0 (0-24)
Plant Height (cheyenne wheat; time of treatment 15 days, 250 ppm, 3 weeks after treatment): 80 % of Control
Plant Height (cheyenne wheat; time of treatment 15 days, 250 ppm, 6 weeks after treatment): 93 % of Control
Plant Height (cheyenne wheat; time of treatment 42 days, 10 ppm, 3 weeks after treatment): 113 % of Control
Plant Height (cheyenne wheat; time of treatment 42 days, 50 ppm, 3 weeks after treatment): 112 % of Control
Plant Height (cheyenne wheat; time of treatment 42 days, 250 ppm, 3 weeks after treatment): 109 % of Control
Height ([1]; 10 ppm, 3 weeks after treatment): 102 % of Control
Height ([1]; 10 ppm, 9 weeks after treatment): 93 % of Control
Height ([1]; 50 ppm, 3 weeks after treatment): 94 % of Control
Height ([1]; 50 ppm, 9 weeks after treatment): 86 % of Control
Height ([1]; 250 ppm, 3 weeks after treatment): 66 % of Control
Height ([1]; 250 ppm, 9 weeks after treatment): 57 % of Control
Observations compared with the control (Bluebell rice): stature reduction and tillering
